System: NRK cells
Assay: Toxicity by trypan blue exclusion and replating of detached cells
Format: cell-based, rat
Description: The activities of the crude and high performance liquid chromatrography (HPLC)-purified GRGDSP peptide were similar. […] To study the correlation of detaching capacity with the cell attachment-promoting and attachment-inhibiting effects established previously (Pierschbacher and Ruoslahti, 1984a; 1984b), each of the following listed peptides was tested for its ability to detach cells: […]

Structure (SMILES): N=C(N)NCCC[C@H](NC(=O)CN)C(=O)NCC(=O)N[C@@H](CC(=O)O)C(=O)N[C@@H](CO)C(=O)N1CCC[C@H]1C(=O)O [GRGDSP, GLY-ARG-GLY-ASP-SER-PRO]
- replating of aggregates washed free of the peptide (NRK aggregates): attached to the dish
- cell death by trypan blue exclusion (detached NRK cells): no cell death could be detected

Reference: patent publication US4879237A, “Use of peptides in control of cell attachment and detachment” (La Jolla Cancer Research Foundation, priority 1985, dated 1989)
